Source: US8314098B2, “Pyrazolo-pyrimidine compounds” (Ajinomoto Co., Inc., priority 2008, dated 2012)

What was measured:
[1] = test system: IL-12p70 (the complex of IL-12p35 and p40); assay: IL-12p70 production inhibition in macrophages derived from mouse abdomen (IFN-γ/SAC stimulation, ELISA); format: cell-based; details: Macrophage; mouse (Balb/c) abdominal macrophages, 100 ng/mL mouse IFN-γ + 0.05% SAC, overnight; TFA salts tested where prepared as such; read-out: IL-12p70-Inhibitory Activity IC50
Procedure: (§1) One milliliter each of a 3% (w/v) thioglycolate solution was intraperitoneally administered to mice (female Balb/c mice), the abdominal cells of each mouse were recovered after 5 or 6 days from the administration of the thioglycolate solution and the adhesive cells were collected and used in the exaluation procedures. To a culture medium containing such adhesive cells, there were added 100 ng/mL of mouse interferon-γ and a 0.05% (v/v) liquid containing killed cells derived from Staphylococcus aureus Cowan I strain (SAC) and a candidate compound and then the mixture was cultivated overnight. After the completion of the cultivation, the survival ratios were determined, there were quantitatively determined the quantities of IL-12p70 (the complex of IL-12p35 and p40) and IL-12p40 or TNF-α according to the ELISA assays while making use of the recovered supernatant of the culture medium and the 50% production-inhibitory concentration (IC50) was calculated for each case (see Table 1 and Tables 1-9 for IL-12p70 and TNF-α and Tables 1 to 10 for IL-12p40).

TNF-α = TNF-α production inhibition in macrophages derived from mouse abdomen (IFN-γ/SAC stimulation, ELISA); format: cell-based; details: Macrophage; mouse (Balb/c) abdominal macrophages, 100 ng/mL mouse IFN-γ + 0.05% SAC, overnight; TFA salts tested where prepared as such; read-out: TNF-α-Inhibitory Activity IC50
Procedure: as §1

Structure (SMILES)	IC50 [1]	IC50 (TNF-α)
Cc1ccc(-c2nn3c(N4CCOCC4)cc(N/N=C/c4cccc(C)c4)nc3c2Br)cc1 [Compound 5, N-{3-bromo-2-(4-methylphenyl)-7-morpholin-4-yl-pyrazolo-[1,5-a]pyrimidin-5-yl}-N′-(3-methyl-benzylidene)-hydrazine]	124 nM	> 10000 nM
Cc1cccc(/C=N/Nc2cc(N3CCOCC3)n3ncc(-c4ccccc4)c3n2)c1 [Compound 6, N-(3-methyl-benzylidene)-N′-(7-morpholin-4-yl-3-phenyl-pyrazolo[1,5-a]pyrimidin-5-yl)-hydrazine]	642 nM	> 10000 nM
C(=N\Nc1cc(N2CCOCC2)n2nc(-c3ccccc3)cc2n1)/c1cccnc1 [Compound 8, N-(7-morpholin-4-yl-2-phenyl-pyrazolo[1,5-a]pyrimidin-5-yl)-N′-pyridin-3-yl-methylidene-hydrazine]	407 nM	> 10000 nM
C(=N\Nc1cc(N2CCOCC2)n2nccc2n1)/c1c[nH]c2ccccc12 [Compound 10, N-(1H-indol-3-yl-methylidene)-N′-(7-morpholin-4-yl-pyrazolo[1,5-a]pyrimidin-5-yl)-hydrazine]	165 nM	> 10000 nM
Cc1cccc(/C=N/Nc2cc(N3CCOCC3)n3ncc(Br)c3n2)c1 [Compound 11, N-(3-bromo-7-morpholin-4-yl-pyrazolo[1,5-a]pyrimidin-5-yl)-N′-(3-methyl-benzylidene)-hydrazine]	340 nM	> 10000 nM
Cc1[nH]c2ccc(/C=N/Nc3cc(N4CCOCC4)n4nc(-c5cnccn5)cc4n3)cc2c1C [Compound 107, N-(2,3-dimethyl-1H-indol-5-yl-methylidene)-N-(7-morpholin-4-yl-2-pyrazin-2-yl-pyrazolo[1,5-a]pyrimidin-5-yl)-hydrazine]	170 nM	–
C(=N\Nc1cc(N2CCOCC2)n2nc(-c3ccncc3)cc2n1)/c1csc2ccccc12 [Compound 109, N-benzo[b]thiophen-3-yl-methylidene-N′-(7-morpholin-4-yl-2-pyridin-4-yl-pyrazolo[1,5-a]pyrimidin-5-yl)-hydrazine]	490 nM	–
Cc1cccc(/C=N/Nc2cc(N3CCOCC3)n3nc(N4CCOCC4)cc3n2)c1 [Compound 127, N-(3-methyl-benzylidene)-N-(2,7-dimorpholin-4-yl-pyrazolo[1,5-a]-pyrimidin-5-yl)-hydrazine]	160 nM	–
Fc1cccc(/C=N/Nc2cc(N3CCOCC3)n3nc(-c4ccncc4)cc3n2)c1 [Compound 130, N-(3-fluoro-benzylidene)-N′-(7-morpholin-4-yl-2-pyridin-4-yl-pyrazolo[1,5-a]pyrimidin-5-yl)-hydrazine]	140 nM	–
Cc1cccc(/C=N/Nc2cc(N3CCOCC3)n3nc(C4CCNCC4)cc3n2)c1 [Compound 132, N-(3-methyl-benzylidene)-N′-(7-morpholin-4-yl-2-piperidin-4-yl-pyrazolo[1,5-a]pyrimidin-5-yl)-hydrazine]	470 nM	–
Cc1cccc(/C=N/Nc2cc(N3CCOCC3)n3nc(OCc4ccccc4)cc3n2)c1 [Compound 134, N-(2-benzyloxy-7-morpholin-4-yl-pyrazolo[1,5-a]pyrimidin-5-yl)-N′-(3-methyl-benzylidene)-hydrazine]	130 nM	–
Cc1cccc(/C=N/Nc2cc(N3CCOCC3)n3nc(C(=O)N(C)c4ccncc4)cc3n2)c1 [Compound 135, 5-[N-(3-methyl-benzylidene)-hydrazino]-7-morpholin-4-yl-pyrazolo[1,5-a]pyrimidine-2-carboxylic acid methyl-pyridin-4-yl-amide]	130 nM	–
OB(O)c1cccc(/C=N/Nc2cc(N3CCOCC3)n3nc(-c4ccccc4)cc3n2)c1 [Compound 139, N-(3-boronyl-benzylidene)-N-(7-morpholin-4-yl-2-phenyl-pyrazolo[1,5-a]pyrimidin-5-yl)-hydrazine]	250 nM	–

Now those with a lower IC50 [1], led by results:

IC50 [1]	IC50 (TNF-α)	Structure (SMILES)
19 nM	> 10000 nM	Cc1cccc(/C=N/Nc2cc(N3CCOCC3)n3nc(-c4ccccc4)cc3n2)c1 [Compound 1, N-(3-methyl-benzylidene)-N′-(2-phenyl-7-morpholin-4-yl-pyrazolo[1,5-a]pyrimidin-5-yl)-hydrazine]
33 nM	> 10000 nM	C(=N\Nc1cc(N2CCOCC2)n2nc(-c3ccccc3)cc2n1)/c1c[nH]c2ccccc12 [Compound 2, N-(1H-indol-3-yl-methylidene)-N′-(7-morpholin-4-yl-2-phenyl-pyrazolo[1,5-a]pyrimidin-5-yl)-hydrazine]
35 nM	> 10000 nM	Cc1ccc(-c2cc3nc(N/N=C/c4cccc(C)c4)cc(N4CCOCC4)n3n2)cc1 [Compound 3, N-(3-methyl-benzylidene)-N′-{2-(4-methylphenyl)-7-morpholin-4-yl-pyrazolo[1,5-a]pyrimidin-5-yl}-hydrazine]
23 nM	> 10000 nM	Cc1ccc(-c2cc3nc(N/N=C/c4c[nH]c5ccccc45)cc(N4CCOCC4)n3n2)cc1 [Compound 4, N-(1H-indol-3-yl-methylidene)-N′-{2-(4-methylphenyl)-7-morpholin-4-yl-pyrazolo[1,5-a]pyrimidin-5-yl}-hydrazine]
113 nM	> 10000 nM	C(=N\Nc1cc(N2CCOCC2)n2nc(-c3ccccc3)cc2n1)/c1ccccc1 [Compound 7, N-benzylidene-N′-(7-morpholin-4-yl-2-phenyl-pyrazolo-[1,5-a]pyrimidin-5-yl)-hydrazine]
17 nM	> 10000 nM	Cc1cccc(/C=N/Nc2cc(N3CCOCC3)n3nc(-c4cccc(Cl)c4)cc3n2)c1 [Compound 12, N-{2-(3-chloro-phenyl)-7-morpholin-4-yl-pyrazolo[1,5-a]-pyrimidin-5-yl}-N′-(3-methyl-benzylidene)-hydrazine]
34 nM	> 10000 nM	Cc1cccc(/C=N/Nc2cc(N3CCOCC3)n3nc(-c4ccc(Cl)cc4)cc3n2)c1 [Compound 13, N-{2-(4-chlorophenyl)-7-morpholin-4-yl-pyrazolo[1,5-a]-pyrimidin-5-yl}-N′-(3-methyl-benzylidene)-hydrazine]
38 nM	> 10000 nM	Cc1cccc(/C=N/Nc2cc(N3CCOCC3)n3nc(-c4ccccc4C)cc3n2)c1 [Compound 14, N-(3-methyl-benzylidene)-N′-{2-(2-methyl-phenyl)-7-morpholin-4-yl-pyrazolo[1,5-a]pyrimidin-5-yl}-hydrazine]
7.3 nM	–	Cc1cccc(/C=N/Nc2cc(N3CCOCC3)n3nc(-c4ccc(C)nc4)cc3n2)c1 [Compound 110, N-(3-methyl-benzylidene)-N′-[2-(6-methyl-pyridin-3-yl)-7-morpholin-4-yl-pyrazolo[1,5-a]pyrimidin-5-yl]-hydrazine]
37 nM	–	Cc1ccc(-c2cc3nc(N/N=C/c4coc5ccccc45)cc(N4CCOCC4)n3n2)cn1 [Compound 111, N-benzofuran-3-yl-methylidene-N′-[2-(6-methyl-pyridin-3-0)-7-morpholin-4-yl-pyrazolo[1,5-a]pyrimidin-5-yl]-hydrazine]
7.5 nM	–	Cc1ccc(-c2cc3nc(N/N=C/c4c[nH]c5ccccc45)cc(N4CCOCC4)n3n2)cn1 [Compound 112, N-(1H-indol-3-yl-methylidene)-N′-[2-(6-methyl-pyridin-3-yl)-7-morpholin-4-yl-pyrazolo[1,5-a]pyrimidin-5-yl]-hydrazine]
98 nM	–	C(=N\Nc1cc(N2CCOCC2)n2nc(-c3ccncc3)cc2n1)/c1ccc2c(c1)OCCO2 [Compound 113, N-(2,3-dihydro-benzo[1,4]dioxin-6-yl-methylidene)-N′-(7-morpholin-4-yl-2-pyridin-4-yl-pyrazolo[1,5-a]pyrimidin-5-yl)-hydrazine]
55 nM	–	CCc1cccc(/C=N/Nc2cc(N3CCOCC3)n3nc(-c4cccnc4)cc3n2)c1 [Compound 115]
40 nM	–	C(=N\Nc1cc(N2CCOCC2)n2nc(-c3ccncn3)cc2n1)/c1c[nH]c2ccccc12 [Compound 120, N-(1H-indol-3-yl-methylidene)-N-(7-morpholin-4-yl-2-pyrimidin-4-yl-pyrazolo[1,5-a]pyrimidin-5-yl)-hydrazine]
20 nM	–	Cc1cccc(/C=N/Nc2cc(N3CCOCC3)n3nc(-c4cncnc4)cc3n2)c1 [Compound 124, N-(3-methyl-benzylidene)-N′-(7-morpholin-4-yl-2-pyrimidin-5-yl-pyrazolo[1,5-a]pyrimidin-5-yl)-hydrazine]
36 nM	–	C(=N\Nc1cc(N2CCOCC2)n2nc(-c3ccncc3)cc2n1)/c1ccc2occc2c1 [Compound 125, N-benzofuran-5-yl-methylidene-N′-(7-morpholin-4-yl-2-pyridin-4-yl-pyrazolo[1,5-a]pyrimidin-5-yl)-hydrazine]
100 nM	–	Cc1cccc(/C=N/Nc2cc(N3CCOCC3)n3nc(C4CCN(C(=O)OCc5ccccc5)CC4)cc3n2)c1 [Compound 131, N-[2-(1-benzyloxy-carbonyl-piperidin-4-yl)-7-morpholin-4-yl-pyrazolo[1,5-a]pyrimidin-5-yl]-N′-(3-methyl-benzylidene)-hydrazine]
96 nM	–	CC(=O)N1CCC(c2cc3nc(N/N=C/c4cccc(C)c4)cc(N4CCOCC4)n3n2)CC1 [Compound 133, N-[2-(1-acetyl-piperidin-4-yl)-7-morpholin-4-yl-pyrazolo-[1,5-a]pyrimidin-5-yl]-N′-(3-methyl-benzylidene)-hydrazine]
